Test results from the supplement of paper PMC3842684.

What was measured:
[1] = tested on: P. falciparum NF54-pfs16-GFP late (IV-V) stage gametocytes; conditions: stage: late (IV-V) gametocyte; incubation 72 h
Experimental: (§1)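 MMV Malaria Box compounds active in the primary screen were retested in dose-response against P. falciparum NF54-pfs16-GFP early (I-III) or late (IV-V) gametocytes, 72 h, 37 C, viable gametocytes counted by confocal imaging; IC50 from an unconstrained 4-parameter fit. Compounds with no plateau have no IC50 and are left out.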

[2] = tested on: P. falciparum NF54-pfs16-GFP early (I-III) stage gametocytes; conditions: stage: early (I-III) gametocyte; incubation 72 h
Experimental: as §1

Compound | IC50, viable gametocyte number [1] | IC50, viable gametocyte number [2]
Cc1cccc(-n2ncc3c(=O)[nH]c(-n4nc(C)cc4NC(=O)c4cc5ccccc5o4)nc32)c1 | 1090 nM | 
COc1ccc(C(C)=O)cc1N1C(=O)C2C(C1=O)C1(c3ccccc3)C(=O)C2(c2ccccc2)C(c2ccc(C)cc2)=C1c1ccc(C)cc1 (stereo unspecified) | 826 nM | 
CNCCCNc1ccnc2cc(Cl)ccc12 | 310 nM | 274 nM
COc1ccc(-c2nc(N3CCN(C(=O)C4CCCCC4)CC3)c3c4c(sc3n2)CCCC4)cc1 | 1290 nM | 
CCOC(=O)c1cn(CC)c2cc(N(C)CCc3ccc(OC)c(OC)c3)c(F)cc2c1=O | 574 nM | 
CC1CC2=C(CC1CNCCCN(C)C)C(C)(C)CCC2 (stereo unspecified) | 541 nM | 
CCCCCCn1c(=N)n(CC(O)COc2cccc(C)c2)c2ccccc21 (stereo unspecified) | 1610 nM | 
CN(C)c1ccc(C=Cc2nc(=O)c3ccccc3o2)cc1 | 936 nM | 
COC(=O)c1ccc(C2C3=C(O)CC(c4ccc(F)cc4)CC3=Nc3ccccc3N2C(=O)c2ccccc2)cc1 (stereo unspecified) | 1130 nM | 
CC(C)CCNCC(O)Cn1c2ccccc2c2ccccc21 (stereo unspecified) | 1170 nM | 
COc1ccc(C2NCCc3c2[nH]c2ccccc32)cc1CN1CCN(c2ccc(F)cc2)CC1 (stereo unspecified) | 1170 nM | 
CSc1ccccc1C(=O)Nc1nc(-c2ccccn2)cs1 | 781 nM | 
Cc1cc(Nc2ccc(OCc3ccccc3)cc2)nc2cc(O)ccc12 | 784 nM | 
CN(C)CCCNc1c2ccccc2nc2ccccc12 | 703 nM | 1440 nM
CN1CCN(c2ccc(Nc3c4ccccc4nc4ccccc34)cc2)CC1 | 1360 nM | 1110 nM
COc1ccc(NC(=O)C2c3ccccc3C(=O)N(CC(C)C)C2c2cccs2)cc1Cl (stereo unspecified) | 596 nM | 
OC(CNC1CCCCC1)Cn1c2ccccc2c2ccccc21 (stereo unspecified) | 897 nM | 
COc1ccc2c(=O)cc(C(Cl)(Cl)Cl)oc2c1 |  | 1210 nM
Brc1ccc(Nc2nc3ccccc3nc2Nc2ccc(Br)cc2)cc1 | 948 nM | 
CCCOCc1cc(CN2CCN(c3cccc(Cl)c3)CC2)c(O)c2ncccc12 | 584 nM | 
OC(CNC1CCCCC1)Cn1c2ccc(I)cc2c2cc(I)ccc21 (stereo unspecified) | 63 nM | 252 nM
Oc1ccc(-c2nc(-c3ccc4oc5ccc(-c6[nH]c(-c7ccc(O)cc7)nc6-c6ccccc6)cc5c4c3)c(-c3ccccc3)[nH]2)cc1 |  | 699 nM
CCCCCCc1cc(O)c2c3c(c(=O)oc2c1)CCC(C)C3 (stereo unspecified) | 759 nM | 
CCOC(=O)C1=C(C)N=c2sc(=Cc3cc(Cl)ccc3O)c(=O)n2C1c1ccc(OC)cc1 (stereo unspecified) | 228 nM | 359 nM

Compound | IC50, viable gametocyte number [1] | IC50, viable gametocyte number [2]
OC1=C2C(=Nc3ccccc3SC2c2ccc(Br)cc2)c2ccccc21 (stereo unspecified) | 875 nM | 
CCc1ccc(Nc2cc(C)c3ccc(O)cc3n2)cc1 | 1270 nM | 
Oc1ccccc1CN1CCC2(CCCN(Cc3ccccc3F)C2)C1 (stereo unspecified) | 673 nM | 1360 nM
CC(C)(C)c1ccc2c(c1)CN(Cc1ccc(Cl)cc1)CO2 | 920 nM | 
Cc1ccc(-c2cc3c(nn2)-c2ccccc2C3=O)cc1 | 603 nM | 
COc1cc2c(cc1OC)C1=NNC(=O)C1=NC(C)(C)C2 | 1040 nM | 
Cc1sc2ncnc(Sc3nc4ccccc4[nH]3)c2c1C | 324 nM | 1140 nM
CCOC(=O)c1c(NC(=O)c2ccccc2)sc2c(O)c(CN(CC)CC)ccc12 | 371 nM | 810 nM
CCOC(=O)c1cnc2ccc(CC)cc2c1O | 253 nM | 
CCCc1cc(O)c2c3c(c(=O)oc2c1)CN(C)CC3 | 591 nM | 
Oc1ccccc1CN1CCN(C(c2ccccc2)c2ccccc2)CC1 | 1320 nM | 
CC(C)(C)c1ccc(O)c(CNC2CCCCC2)c1 | 382 nM | 712 nM
COc1ccc(Nc2nc(NCc3ccccc3)c3ccccc3n2)cc1 |  | 1480 nM
COc1ccc(-c2nc3cc(Cc4ccc5[nH]c(-c6ccc(OC)cc6)nc5c4)ccc3[nH]2)cc1 | 1110 nM | 949 nM
Nc1ccc(-c2nc3cc(Cc4ccc5[nH]c(-c6ccc(N)cc6)nc5c4)ccc3[nH]2)cc1 | 1100 nM | 
CN(C)c1ccc(C(O)(c2ccc(N(C)C)cc2)c2ccc(N(C)C)cc2)cc1 | 315 nM | 769 nM
CC1=C(CC(=O)c2cccc([N+](=O)[O-])c2)C(=O)c2ccccc2C1=O | 745 nM | 1160 nM
Cc1ccc(Nc2nc(-c3ccccn3)cs2)cc1 | 231 nM | 461 nM
CSC1=NC(=Nc2c(C)cccc2C)C2(CCC(C(C)(C)C)CC2)N1c1ccc(Cl)cc1 (stereo unspecified) | 592 nM | 
COc1ccc(C2c3ccc4ccccc4c3Oc3ncn(CCCN(C)C)c(=N)c32)cc1 (stereo unspecified) | 1060 nM | 
Cc1ccc(N2C3c4ccccc4N(S(=O)(=O)c4ccc(C)cc4)C2c2ccccc2N3S(=O)(=O)c2ccc(C)cc2)cc1 | 208 nM | 1180 nM
Cc1ccc2c(C)nc(Nc3nc(C)cc(-c4ccccc4)n3)nc2c1 | 673 nM | 
CC1CCCCN1CCCNC(=O)c1ccc2c(c1)sc1nc(-c3ccc(F)cc3)cn12 (stereo unspecified) |  | 1790 nM
COc1ccc(C=C2SC(Nc3ccc(F)cc3)=NC2=O)c(OC)c1 | 892 nM | 

Compound | IC50, viable gametocyte number [1] | IC50, viable gametocyte number [2]
CCN(CC)CCNc1ccnc2cc3ccccc3cc12 |  | 1710 nM
OCCNc1nc(Nc2ccc(Cl)c(Cl)c2)nc2ccccc12 | 1350 nM | 
COc1ccc(C(=O)C(CCC(CNC(C)(C)C)C(=O)c2ccc(OC)cc2)CNC(C)(C)C)cc1 (stereo unspecified) | 1090 nM | 
Cn1c(=O)n(C)c2cc(CNCCNc3ccnc4cc(Cl)ccc34)ccc21 |  | 588 nM
c1ccc(Cn2c(N=Nc3c(Nc4ccccc4)ccc4ccccc34)nc3ccccc32)cc1 | 184 nM | 
CCN(CC)CCn1c(=N)n(CC(O)c2ccc(Cl)c(Cl)c2)c2ccccc21 (stereo unspecified) | 1090 nM | 1440 nM
CCOC(=O)C1=C(C)N=c2sc(=Cc3ccccc3O)c(=O)n2C1c1ccc(OC)c2ccccc12 (stereo unspecified) | 1080 nM | 
COc1cccc(C=Cc2nc(=O)c3ccccc3o2)c1OC | 438 nM | 
Clc1cc(Br)ccc1-c1ccc(CNCC2CCNCC2)o1 | 692 nM | 824 nM
CCOc1ccccc1CN1CCc2nc3cc(C(C)(C)C)nn3c(O)c2C1 | 1590 nM | 
C=CC12CCN(CC1)C(C(O)c1ccnc3ccc(OC)cc13)C2 (stereo unspecified) | 276 nM | 823 nM
FC(F)(F)c1cccc(Nc2nc3ccccc3nc2Nc2cccc(C(F)(F)F)c2)c1 | 416 nM | 1310 nM
CCCCCCc1cc2cc(-c3csc(C=Cc4ccccc4)n3)c(=O)oc2cc1O | 594 nM | 830 nM
COc1cccc(O)c1CN1CCC2(CCCN(Cc3ccc(F)cc3)C2)C1 (stereo unspecified) | 899 nM | 
CCN(CC)CCNc1ccnc2cc(Cl)ccc12 |  | 1020 nM
CCCCCCc1cc2cc(-c3nc4ccccc4[nH]3)c(=Nc3ccccc3C)oc2cc1O | 465 nM | 819 nM
Oc1ccccc1CNCC12CC3CC(CC(C3)C1)C2 | 415 nM | 891 nM
CCOC(=O)c1cn(CC)c2cc(N3CCCCC3)c(F)cc2c1=O | 337 nM | 
COc1ccc(C(=O)NC(c2ccc(Cl)cc2Cl)c2cc(Cl)c3cccnc3c2O)cc1 (stereo unspecified) | 1080 nM | 
O=C1c2ccccc2C2=Nc3ccccc3SC(c3cccc(F)c3)C12 (stereo unspecified) | 733 nM | 
O=c1cc(NC2CCN(CCCc3ccccc3)CC2)c2cc(Cl)ccc2o1 |  | 1310 nM
COc1ccc(C2=C(c3ccc(OC)cc3)C3(c4ccccc4)C(=O)C2(c2ccccc2)C2C(=O)N(c4ccc(C)cc4)C(=O)C23)cc1 (stereo unspecified) | 333 nM | 
